From patent EP4000606A1, “COMPOUNDS FOR CORONAVIRUS INFECTION TREATMENT AND/OR PREVENTION” (priority 2020, dated 2022)
Where two headings read alike, the source gives them in different places. Peptide text beside a SMILES is read from it. * marks the point of attachment. Cbz = O=C(OCc1ccccc1)*

Test system: SARS-CoV-2
Experiment: microbe, parasite or virus in culture
Assay type: cell-based
[1] = Severe acute respiratory syndrome coronavirus 2, 120 h
[2] = Severe acute respiratory syndrome coronavirus 2, 120 h, half maximal concentration able to recover the cytopathic effect of infection, VeroE6-EGFP cells, 0.01 MOI, 5 days, 8 concentrations, read-out: IC50
[3] = confluence of SARS-CoV-2 infected VeroE6-EGFP cells after test compound treatment compared to control wells, 5 days

SMILES | Maximum confluence reached (%) (5 days) | also measured
C[C@H]1CCC/C=C/[C@@H]2C[C@H](O)C[C@H]2[C@H](O)/C=C/C(=O)O1 (relative stereo) [compound 47, (1R,2S,7S,13S,15S)-2,15-Dihydroxy-7-methyl-6-oxabicyclo[11.3.0]hexadeca-3(E),11(E)-dien-5-one [1S-(1R*,2E,6R*,10E,11aR*,13R*,14a S*)]-1,6,7,8,9,11a,12,13,14,14a-Decahydro-1,13-dihydroxy-6-methyl-4H-cyclopent[f]oxacyclotridecin-4-one] |  | Emax (Severe acute respiratory syndrome coronavirus 2, 120 h, 5 days, read-out: Maximum confluence reached (%)): 122%
CCC(C/C=C/c1ccccc1)(c1ccccc1)N(C)CC1CC1 (single isomer, unassigned; (+)) [compound 89, (+)-N-(Cyclopropylmethyl)-N-[1-ethyl-1,4-diphenyl-3(E)-butenyl]-N-methylamine] | 58.34% | IC50 [1]: 11.2 µM
CN(Cc1cnc2nc(N)nc(N)c2n1)c1ccc(C(=O)N[C@@H](CCC(=O)O)C(=O)O)cc1 [compound 1, N-[4-[N-(2,4-Diaminopteridin-6-ylmethyl)-N-methylamino]benzoyl]-L-glutamic acid] |  | IC50 [2]: 0.05 µM; Maximum confluence reached (%) [3]: 64%
COc1cc(NCc2ccc3nc(N)nc(N)c3c2C)cc(OC)c1OC [compound 2, 2,4-Diamino-5-methyl-6-[(3,4,5-trimethoxyanilino)methyl]quinaz oline 5-Methyl-6-[[(3,4,5-trimetoxyphenyl)amino]methyl]-2,4-quinazolinediamine] | 78.23% | 
C#CCC(Cc1cnc2nc(N)nc(N)c2n1)c1ccc(C(=O)N[C@@H](CCC(=O)O)C(=O)O)cc1 (stereo partly drawn) [compound 3, N-[4-[2-(2,4-Diaminopteridin-6-yl)-1-(2-propynyl)ethyl]benzoyl]-L-glutamic acid 10-Propargyl-10-deazaaminopterin] | 76.65% | 
Nc1nc(N)c2nc(CNc3ccc(C(=O)N[C@@H](CCC(=O)O)C(=O)O)cc3)cnc2n1 [compound 10, N-[4-(2,4-diamino-6-pteridinylmethylamino)benzolyl]-L-glutamic acid] | 72.54% | 
CN(C)c1cccc(-c2c3c(=O)n(-c4ccccc4Cl)[nH]c3cc(=O)n2C)c1 [compound 13, 2-(2-Chlorophenyl)-4-[3-(dimethylamino)phenyl]-5-methyl-1H-pyrazolo[4,3-c]pyridine-3,6(2H,5H)-dione] | 101.52% | IC50 [1]: 7.57 µM
Nc1ncc(-c2ccnc(Nc3ccncc3)n2)c(CC2CC2)n1 [compound 20, 4'-(Cyclopropylmethyl)-N2-(pyridin-4-yl)-4,5'-bipyrimidine-2,2'-diamine] | 98.17% | 
C/C(=C\c1ccc(C(=O)O)cc1)c1ccc2c(c1)C(C)(C)CCC2(C)C [compound 26, 4-[2-(5,5,8,8-Tetramethyl-5,6,7,8-tetrahydronaphthalen-2-yl)-1(E)-propenyl]benzoic acid] | 105.73% | IC50 [1]: 33.7 µM
c1cncc(CN2CCC(n3ncc4c(N5CCOCC5)nc(-c5ccc6[nH]ccc6c5)nc43)CC2)c1 [compound 32, 6-(1H-Indol-5-yl)-4-(4-morpholinyl)-1-[1-(pyridin-3-ylmethyl)piperidin-4-yl]-1H-pyrazolo[3,4-d]pyrimidine] | 67.69% | 
COc1ccc2c(c1)[C@]1(C[C@H]1c1ccc3c(/C=C/c4ccc(CN5C[C@@H](C)O[C@@H](C)C5)cc4)n[nH]c3c1)C(=O)N2.O=C(O)/C=C/C(=O)O [compound 33, (1R,2S)-2-[3-[(E)-2-[4-[(cis-2,6-Dimethylmorpholin-4-yl)methyl]phenyl]vinyl]-1H-indazol-6-yl]-5'-methoxyspiro[cyclopropane-1,3'-indol]-2'(1'H)-one (2E)-but-2-enedioate] | 105.46% | 
CNCc1ccc(-c2cc(-c3nc(-c4ccc(S(=O)(=O)C(C)C)cc4)cnc3N)on2)cc1 [compound 34, 3-[3-[4-[(Methylamino)methyl]phenyl]-1,2-oxazol-5-yl]-5-[4-(propan-2-ylsulfonyl)phenyl]pyrazin-2-amine] | 99.21% | 
COc1cc2c(N3CCN(C(=O)Nc4ccc(OC(C)C)cc4)CC3)ncnc2cc1OCCCN1CCCCC1 [compound 35, N-(4-Isopropoxyphenyl)-4-[6-methoxy-7-[3-(1-piperidinyl)propoxy]quinazolin-4-yl]piperazine-1-carboxamide] | 80.09% | 
CN1[C@@H]2CC[C@H]1C[C@@H](OC(=O)c1cc(Cl)cc(Cl)c1)C2 [compound 36, 1alphaH,3alpha,5alphaH-Tropan-3-yl-3,5-dichlorobenzoate; 3,5-Dichlorobenzoic acid endo-8-methyl-8-azabicyclo[3.2.1]oct-3-yl ester] | 69.05% | IC50 [1]: 43.9 µM
CC1=NN(c2ccc(C)c(C)c2)C(=O)/C1=N\Nc1cccc(-c2cccc(C(=O)O)c2)c1O [compound 37, 3'-[2(Z)-[1-(3,4-Dimethylphenyl)-3-methyl-5-oxo-4,5-dihydro-1H-pyrazol-4-ylidene]hydrazino]-2'-hydroxybiphenyl-3-carboxylic acid] | 63.17% | IC50 [1]: 58.1 µM
Cc1nc(N)nc(N)c1-c1ccc(Cl)c(Cl)c1 [compound 41, 5-(3,4-Dichlorophenyl)-6-methylpyrimidine-2,4-diamine] | 58.02% | 
CC(C)c1cnn2c(NCc3ccccc3)cc(NCCCCCCN)nc12 [compound 48, N5-(6-Aminohexyl)-N7-benzyl-3-isopropylpyrazolo[1,5-a]pyrimidine-5,7-diamine] | 47.31% | 
CC1(N2CCC(n3c([C@@H]4CCCNC4)nc4ccccc43)CC2)CCCCCCC1 [compound 51, 1-[1-(1-Methylcyclooctyl)piperidin-4-yl]-2-[3(R)-piperidinyl]-1H-benzimidazole] | 57.77% | 
CC(C)C[C@@H](C=O)NC(=O)[C@H](CC(C)C)NC(=O)[C@H](CC(C)C)NC(=O)OCc1ccccc1 [compound 52, Benzyloxycarbonyl-L-leucyl-L-leucyl-L-leucinal] (Cbz-Leu-Leu-Leu-aldehyde) | 82.81% | 
Cc1[nH]c(/C=C2\C(=O)Nc3ccc(S(=O)(=O)Cc4c(Cl)cccc4Cl)cc32)c(C)c1C(=O)N1CCC[C@@H]1CN1CCCC1 [compound 53, 5-(2,6-Dichlorobenzylsulfonyl)-3(Z)-[3,5-dimethyl-4-[2(R)-(pyrrolidin-1-ylmethyl)pyrrolidin-1-ylcarbonyl]-1H-pyrrol-2-ylmethylene]-2,3-dihydro-1H-indol-2-one] | 95.69% | 
C[C@@H]1COCCN1c1cc(=O)n2c(n1)N(Cc1cncc(Cl)c1)[C@H](C(F)(F)F)CC2 [compound 54, (8S)-9-[(5-Chloropyridin-3-yl)methyl]-2-[(3R)-3-methylmorpholin-4-yl]-8-(trifluoromethyl)-6,7,8,9-tetrahydro-4H-pyrimido[1,2-a]pyrimidin-4-one] |  | Maximum confluence reached (%) [3]: 89%
O=C(NCCN1CCC2(CC1)C(=O)NCN2c1cccc(F)c1)c1ccc2ccccc2c1 [compound 56, N-[2-[1-(3-Fluorophenyl)-4-oxo-1,3,8-triazaspiro[4.5]dec-8-yl]ethyl]naphthalen-2-carboxamide] | 98.46% | 
Cc1cc(O[C@@H](CCC(F)(F)F)c2ccc(C(=O)NCCC(=O)O)cc2)cc(C)c1-c1ccc(C(C)(C)C)cc1 [compound 57, N-(4-[(1S)-1-[(4'-tert-Butyl-2,6-dimethylbiphenyl-4-yl)oxy]-4,4,4-trifluorobutyl]benzoyl)-beta-alanine] | 39.53% | 
COc1cc2c(NC3CCN(C4CCCCC4)CC3)nc(N3CCCN(C(C)C)CC3)nc2cc1OCCCN1CCCCC1 [compound 59, N-(1-Cyclohexylpiperidin-4-yl)-6-methoxy-7-[3-(1-piperidinyl)propoxy]-2-[4-(propan-2-yl)perhydro-1,4-diazepin-1-yl]quinazolin-4-amine] | 80.08% | 
CC(C)(O)CNc1ncc(-c2ccnc(Nc3ccnc(Cl)c3)n2)c(CC2CC2)n1 [compound 60, 1-[[2-[(2-chloro-4-pyridinyl)amino]-4'-(cyclopropylmethyl) [4,5'-bipyrimidin]-2'-yl]amino]-2-methyl-2-propanol] | 45.62% | 
COc1ccccc1[C@H](Cn1c(=O)n(C(C)(C)C(=O)O)c(=O)c2c(C)c(-c3ncco3)sc21)OC1CCOCC1 [compound 61, 2-[1-[(2R)-2-(2-Methoxyphenyl)-2-(tetrahydro-2H-pyran-4-yloxy)ethyl]-5-methyl-6-(1,3-oxazol-2-yl)-2,4-dioxo-1,4-dihydrothieno[2,3-d]pyrimidin-3(2H)-yl]-2-methylpropanoic acid] | 78.18% | 
Cc1ccc(C(=O)Nc2cccc(C(F)(F)F)c2)cc1Nc1nc(-c2cccnc2)nc2c1cnn2C [compound 62, 4-methyl-3-{[1-methyl-6-(3-pyridinyl)-1H-pyrazolo[3,4-d]pyrimidin-4-yl]amino}-N-[3-(trifluoromethyl)phenyl]benzamide] |  | Maximum confluence reached (%): 88.43%
Cn1nc(C(C)(C)C)cc1C(=O)N[C@@H](Cc1cccc(Cl)c1)C(=O)NCC#N [compound 63, 3-tert-butyl-N-{(1S)-1-(3-chlorobenzyl)-2-[(cyanomethyl)amino]-2-oxoethyl}-1-methyl-1H-pyrazole-5-carboxamide] | 96.18% | 
N#Cc1cccc(C#N)c1-c1nc2c3ccc(Cl)cc3c3ccccc3c2[nH]1 [compound 64, 2-(6-Chloro-1H-phenanthro[9,10-d]imidazol-2-yl)benzene-1,3-dicarbonitrile] | 98.48% | 
CCCCOCCOc1ccc(-c2ccc3c(c2)C=C(C(=O)Nc2ccc([S@@+]([O-])Cc4cncn4CCC)cc2)CCCN3CC(C)C)cc1 [compound 65, (-)-(S)-8-[4-(2-Butoxyethoxy)phenyl]-1-isobutyl-N-[4-(1-propyl-1H-imidazol-5-ylmethylsulfinyl)phenyl]-1,2,3,4-tetrahydro-1-benzazocine-5-carboxamide] | 70.92% | IC50 [2]: 55 µM
